What all share (format): cell-based
In assay [1] the target is T1, NMDA receptor subunits 1A/2B (Rattus norvegicus, UniProt P35439+Q00960).
T1 construct: expressed in transfected cells; host or cells: Xenopus laevis oocytes (cRNA injection; clones from Dr. P. H. Seeburg)
The assay is described as follows: Electrophysiological assay at NMDA receptor subunits expressed in Xenopus oocytes, 1A/2B. Conditions: Xenopus oocytes; glutamate 100 μm and glycine 1-100 μm; read-out: Subunits IC50, 1A/2B. How it is done: (§1) Many of the properties of native NMDA receptors are seen in recombinant homomeric NR1 receptors. These properties are altered by the NR2 subunits. Recombinant NMDA receptors expressed in Xenopus oocytes have been studied by voltage-clamp recording, as has developmental and regional expression of the mRNAs encoding NMDA receptor subunits. Electrophysiological assays were utilized to characterize the actions of compounds at NMDA receptors expressed in Xenopus oocytes. The compounds were assayed at four subunit combinations of cloned rat NMDA receptors, corresponding to three putative NMDA receptor subtypes [Moriyoshi, et al. Nature 1991, 354, 31-37; Monyer et al, Science 1992, 256, 1217-1221; Kutsuwada et al, Nature 1992, 358, 36-41; Sugihara et al, Biochem. Biophys Res. Commun. 1992, 185, 826-832].
(§2) Electrophysiological Assays at NMDA Receptor Subunits
(§3) Preparation of RNA. cDNA clones encoding the NR1A, NR2A, NR2B, NR2C and NR2D rat NMDA receptor subtypes were provided by Dr. P. H. Seeburg (see, Moriyoshi et al., Nature (Lond.) 354:31-37 (1991); Kutsuwada et al., Nature (Lond.) 358:36-41 (1992) Monyer et al., Science (Washington, D.C.) 256:1217-1221 (1992); Ikeda et al., FEBS Lett. 313:34-38 (1992); Ishii et al., J. Biol. Chem. 268:2836-2843 (1993) for details of these clones or their mouse homologs). The clones were transformed into appropriate host bacteria and plasmid preparations were made with conventional DNA purification techniques. A sample of each clone was linearized by restriction enzyme digestion and cRNA was synthesized with T3 RNA polymerase. The cRNA was diluted to 400 ng/μl and stored in 1 μl aliquots at -80° C. until injection.
(§4) The Xenopus oocyte expression system. Mature female Xenopus laevis were anaesthetized (20-40 min) using 0.15% 3-aminobenzoic acid ethyl ester (MS-222) and 2-4 ovarian lobes were surgically removed. Oocytes at developmental stages IV-VI (Dumont, J. N., J. Morphol. 136:153-180 (1972)), were dissected from the ovary still surrounded by enveloping ovarian tissues. Follicle-enclosed oocytes were micro-injected with 1:1 mixtures of cRNA:NR1A+NR2A, 2B, 2C or 2D; injecting ~2,5, or 20 ng of RNA encoding each receptor subunit. NR1A encoding cRNA was injected alone at ~20 ng. Oocytes were stored in Barth's medium containing (in mM):NaCl, 88; KCl, 1; CaCl2, 0.41; Ca(NO3)2, 0.33; MgSO4, 0.82 NaHCO3, 2.4; HEPES 5, pH 7.4, with 0.1 mg/ml gentamicin sulphate. While oocytes were still surrounded by enveloping ovarian tissues the Barth's medium was supplemented with 0.1% bovine serum. Oocytes were defolliculated 1-2 days following injections by treatment with collagenase (0.5 mg/ml Sigma Type I for 0.5-1 hr) (Miledi and Woodward, J. Physiol. (Lond.) 416:601-621 (1989)) and subsequently stored in serum-free medium.
(§5) Electrical recordings were made using a conventional two-electrode voltage clamp (Dagan TEV-200) over periods ranging between 3-21 days following injection. (Woodward et al., Mol. Pharmacol. 41: 89-103 (1992)). Oocytes were placed in a 0.1 ml recording chamber continuously perfused (5-15 ml min^-1 ) with frog Ringer's solution containing (in mM):NaCl, 115; KCl, 2; CaCl2, 1.8; HEPES, 5; pH 7.4. Drugs were applied by bath perfusion. Using oocytes expressing different subunit combinations of NMDA receptor, NMDA currents were activated by co-application of glutamate (100 μm) and glycine (1-100 μm). Inhibitory potency of the novel antagonists was assessed on responses elicited by fixed concentrations of glutamate and glycine, by measuring reductions in current induced by progressively increasing concentrations of antagonist. Concentration-inhibition curves were fit with equation 1.
(§6) I/Icontrol =1/(1+([antagonist]/10^-pIC50)^n) Eq. 1
(§7) in which Icontrol is the current evoked by agonists alone, pIC50 =-log IC50, IC50 is the concentration of antagonist that produces half maximal inhibition, and n is the slope factor. (De Lean et al., Am. J. Physiol. 235:E97-102 (1978)). […]

Assay [2] has as its target T2, NMDA receptor subunits 1A/2C (Rattus norvegicus, UniProt P35439+Q00961).
T2 construct: expressed in transfected cells; host or cells: Xenopus laevis oocytes (cRNA injection; clones from Dr. P. H. Seeburg)
The assay is described as follows: Electrophysiological assay at NMDA receptor subunits expressed in Xenopus oocytes, 1A/2C. Conditions: Xenopus oocytes; glutamate 100 μm and glycine 1-100 μm; read-out: Subunits IC50, 1A/2C. As for the experimental part:
as §1, §2, §3, §4, §5, §6, §7

In assay [3] the target is T3, NMDA receptor subunits 1A/2A (Rattus norvegicus, UniProt P35439+Q00959).
T3 construct: expressed in transfected cells; host or cells: Xenopus laevis oocytes (cRNA injection; clones from Dr. P. H. Seeburg)
The assay is described as follows: Electrophysiological assay at NMDA receptor subunits expressed in Xenopus oocytes, 1A/2A. Conditions: glutamate 100 μm and glycine 1-100 μm. How it is done:
as §1, §2, §3, §4, §5, §6, §7

The structures appear in SMILES notation. Counter-ions that a name gives are not always drawn. Where only a bound is given, the exact number is not on record here.

T1 sequence (Q00960 27-1482, other chains not shown): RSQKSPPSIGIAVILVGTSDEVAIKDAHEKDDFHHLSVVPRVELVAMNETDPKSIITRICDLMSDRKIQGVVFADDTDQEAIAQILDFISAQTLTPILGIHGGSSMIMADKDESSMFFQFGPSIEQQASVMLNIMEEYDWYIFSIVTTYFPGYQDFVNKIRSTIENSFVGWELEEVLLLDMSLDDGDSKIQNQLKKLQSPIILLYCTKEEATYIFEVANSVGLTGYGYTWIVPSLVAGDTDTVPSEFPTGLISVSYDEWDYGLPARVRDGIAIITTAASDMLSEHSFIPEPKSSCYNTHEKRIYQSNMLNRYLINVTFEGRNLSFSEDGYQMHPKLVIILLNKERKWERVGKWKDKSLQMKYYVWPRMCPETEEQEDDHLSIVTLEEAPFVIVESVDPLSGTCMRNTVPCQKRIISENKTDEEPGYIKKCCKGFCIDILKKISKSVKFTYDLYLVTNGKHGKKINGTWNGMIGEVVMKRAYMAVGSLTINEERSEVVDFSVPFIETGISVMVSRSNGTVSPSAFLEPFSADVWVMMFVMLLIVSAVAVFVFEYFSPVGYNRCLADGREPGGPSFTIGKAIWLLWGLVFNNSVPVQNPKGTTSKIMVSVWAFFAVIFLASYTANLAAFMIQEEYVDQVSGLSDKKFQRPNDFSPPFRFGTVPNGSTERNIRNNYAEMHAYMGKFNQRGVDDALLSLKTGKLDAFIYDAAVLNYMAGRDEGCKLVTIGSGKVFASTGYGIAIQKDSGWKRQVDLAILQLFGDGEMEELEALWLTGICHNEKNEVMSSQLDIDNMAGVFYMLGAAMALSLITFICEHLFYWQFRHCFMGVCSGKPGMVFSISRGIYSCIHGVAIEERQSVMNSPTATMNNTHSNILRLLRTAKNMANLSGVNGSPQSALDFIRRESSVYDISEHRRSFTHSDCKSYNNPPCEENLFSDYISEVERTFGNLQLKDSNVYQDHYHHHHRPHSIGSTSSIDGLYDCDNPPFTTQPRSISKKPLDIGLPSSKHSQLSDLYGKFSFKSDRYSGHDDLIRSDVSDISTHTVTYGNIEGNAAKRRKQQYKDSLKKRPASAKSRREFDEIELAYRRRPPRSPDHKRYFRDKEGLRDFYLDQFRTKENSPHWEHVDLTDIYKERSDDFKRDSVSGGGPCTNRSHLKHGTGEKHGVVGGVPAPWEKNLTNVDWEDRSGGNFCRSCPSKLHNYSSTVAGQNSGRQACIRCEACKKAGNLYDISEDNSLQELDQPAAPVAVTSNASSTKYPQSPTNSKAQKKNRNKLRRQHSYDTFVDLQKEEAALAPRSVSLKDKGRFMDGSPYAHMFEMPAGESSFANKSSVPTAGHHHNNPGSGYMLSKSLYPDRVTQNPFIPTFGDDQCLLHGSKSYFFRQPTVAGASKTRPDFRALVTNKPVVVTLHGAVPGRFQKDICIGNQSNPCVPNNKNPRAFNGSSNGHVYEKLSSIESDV
T2 sequence (Q00961 20-1237, other chains not shown): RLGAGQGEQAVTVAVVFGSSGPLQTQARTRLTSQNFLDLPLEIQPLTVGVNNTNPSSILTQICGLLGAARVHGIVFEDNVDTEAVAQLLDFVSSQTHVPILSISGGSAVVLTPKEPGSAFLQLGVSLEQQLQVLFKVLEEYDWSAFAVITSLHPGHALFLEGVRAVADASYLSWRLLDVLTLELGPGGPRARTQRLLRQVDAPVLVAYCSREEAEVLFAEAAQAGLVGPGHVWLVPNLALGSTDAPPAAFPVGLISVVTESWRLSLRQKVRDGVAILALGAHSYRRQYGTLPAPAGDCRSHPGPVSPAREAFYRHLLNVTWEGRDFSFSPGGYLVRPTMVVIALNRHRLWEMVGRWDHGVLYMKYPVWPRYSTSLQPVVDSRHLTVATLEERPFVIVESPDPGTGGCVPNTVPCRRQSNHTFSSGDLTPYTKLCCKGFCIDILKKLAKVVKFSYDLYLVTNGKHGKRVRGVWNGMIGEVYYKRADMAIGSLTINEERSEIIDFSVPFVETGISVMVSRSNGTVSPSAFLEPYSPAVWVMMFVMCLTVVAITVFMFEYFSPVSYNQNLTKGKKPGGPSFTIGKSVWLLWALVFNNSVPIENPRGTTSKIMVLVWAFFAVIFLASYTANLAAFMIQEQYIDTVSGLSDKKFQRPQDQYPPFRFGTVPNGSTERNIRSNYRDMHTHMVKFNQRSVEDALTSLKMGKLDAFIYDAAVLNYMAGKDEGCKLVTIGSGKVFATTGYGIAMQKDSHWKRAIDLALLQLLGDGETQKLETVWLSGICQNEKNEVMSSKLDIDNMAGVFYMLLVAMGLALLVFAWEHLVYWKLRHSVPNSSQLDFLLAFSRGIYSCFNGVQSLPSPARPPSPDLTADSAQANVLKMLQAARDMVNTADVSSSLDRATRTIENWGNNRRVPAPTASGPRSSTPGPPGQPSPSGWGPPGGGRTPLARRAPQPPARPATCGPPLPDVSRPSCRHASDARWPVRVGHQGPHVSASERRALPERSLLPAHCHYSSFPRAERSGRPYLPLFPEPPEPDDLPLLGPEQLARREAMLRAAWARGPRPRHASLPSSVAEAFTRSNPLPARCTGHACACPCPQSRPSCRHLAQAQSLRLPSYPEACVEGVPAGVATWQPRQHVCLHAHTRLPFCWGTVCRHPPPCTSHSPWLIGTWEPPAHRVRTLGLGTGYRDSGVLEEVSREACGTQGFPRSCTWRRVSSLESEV
T3 sequence (Q00959 20-1464 limits assumed, other chains not shown): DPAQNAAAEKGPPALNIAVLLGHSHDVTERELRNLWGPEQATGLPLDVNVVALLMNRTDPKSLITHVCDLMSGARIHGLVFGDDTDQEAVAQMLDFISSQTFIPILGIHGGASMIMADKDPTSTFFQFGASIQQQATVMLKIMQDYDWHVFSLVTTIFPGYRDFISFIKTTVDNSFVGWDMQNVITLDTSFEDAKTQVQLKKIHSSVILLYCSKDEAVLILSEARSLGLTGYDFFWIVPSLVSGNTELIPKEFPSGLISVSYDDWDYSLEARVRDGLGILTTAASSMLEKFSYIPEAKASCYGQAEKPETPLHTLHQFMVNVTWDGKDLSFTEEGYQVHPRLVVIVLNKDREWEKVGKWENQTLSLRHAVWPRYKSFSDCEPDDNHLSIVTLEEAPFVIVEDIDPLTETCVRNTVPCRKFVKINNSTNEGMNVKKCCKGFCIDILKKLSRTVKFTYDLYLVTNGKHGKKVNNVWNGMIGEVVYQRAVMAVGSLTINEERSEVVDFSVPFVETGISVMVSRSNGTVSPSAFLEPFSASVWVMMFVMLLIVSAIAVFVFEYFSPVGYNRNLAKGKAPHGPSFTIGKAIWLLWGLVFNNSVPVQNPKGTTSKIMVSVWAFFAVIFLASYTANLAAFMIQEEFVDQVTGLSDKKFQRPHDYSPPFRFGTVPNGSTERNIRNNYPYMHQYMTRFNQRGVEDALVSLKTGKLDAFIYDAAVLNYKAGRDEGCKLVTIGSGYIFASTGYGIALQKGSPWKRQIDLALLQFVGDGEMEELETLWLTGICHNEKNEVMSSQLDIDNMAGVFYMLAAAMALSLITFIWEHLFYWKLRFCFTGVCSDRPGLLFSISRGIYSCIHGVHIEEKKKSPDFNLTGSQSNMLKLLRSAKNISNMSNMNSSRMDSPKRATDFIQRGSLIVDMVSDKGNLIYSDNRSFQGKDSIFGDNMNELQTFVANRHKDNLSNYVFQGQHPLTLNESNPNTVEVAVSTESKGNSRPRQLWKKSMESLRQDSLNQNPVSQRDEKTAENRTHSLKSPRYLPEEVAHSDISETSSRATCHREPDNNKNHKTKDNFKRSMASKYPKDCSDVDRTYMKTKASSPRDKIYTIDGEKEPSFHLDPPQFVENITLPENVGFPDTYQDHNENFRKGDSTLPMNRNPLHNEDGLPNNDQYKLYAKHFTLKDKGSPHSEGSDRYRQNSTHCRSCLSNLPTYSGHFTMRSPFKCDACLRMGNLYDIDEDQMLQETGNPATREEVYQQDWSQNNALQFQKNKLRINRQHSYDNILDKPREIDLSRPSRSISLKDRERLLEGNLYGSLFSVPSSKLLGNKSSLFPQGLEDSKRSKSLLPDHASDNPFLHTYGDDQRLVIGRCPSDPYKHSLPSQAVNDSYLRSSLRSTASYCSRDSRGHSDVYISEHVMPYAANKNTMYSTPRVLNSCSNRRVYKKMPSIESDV

For `CC(COc1ccccc1)N1CCC(Cc2ccccc2)CC1` (stereo not drawn) [Ex. 21, 4-Benzyl-1-(1-methyl-2-phenoxyethyl)piperidine hydrobromide], the IC50 in assay [1] is 2.5 µM; in assay [2], > 100 µM; in assay [3], 45 µM.
In the same order, the values of `O=[N+]([O-])c1ccc(CC2CCN(CCOc3ccc(F)cc3)CC2)cc1` [Ex. 36, 1-(2-(4-Fluorophenoxy)ethyl)-4-(4-nitrobenzyl)piperidine hydrobromide] are 22 µM, > 100 µM and 40 µM.
In the same order, the values of `O=[N+]([O-])c1ccc(CC2CCN(CCCOc3ccccc3)CC2)cc1` [Ex. 37, 4-(4-Nitrobenzyl)-1-(3-phenoxypropyl)piperidine hydrobromide] are 10 µM, > 100 µM and 14 µM.
For `CC(CCOc1ccccc1)N1CCC(Cc2ccccc2)CC1` (stereo not drawn) [Ex. 41, 4-Benzyl-1-(1-methyl-3-phenoxypropyl)piperidine hydrochloride], in that order: 5 µM, > 100 µM and 90 µM.
As to `c1ccc(CC2CCN(CCOc3ccc4ncccc4c3)CC2)cc1` [Ex. 50], the IC50 in assay [1] is 5 µM; in assay [2] it was > 100 µM; in assay [3], 75 µM.
Take `c1ccc(CC2CCN(CCOc3cccc4cccnc34)CC2)cc1` [Ex. 51, 4-Benzyl-1-[2-(8-quinolinoxy)ethyl]piperidine]: the IC50 in assay [1] was 5 µM; in assay [2], > 100 µM; in assay [3] it was 80 µM.
For `Nc1c(OCCN2CCC(Cc3ccccc3)CC2)cccc1[N+](=O)[O-]` [Ex. 52, 4-Benzyl-1-[2-(2-amino-3-nitrophenoxy)ethyl]piperidine], in that order: 9.5 µM, > 100 µM and 60 µM.
In the same order, the values of `O=c1[nH]c2cccc(OCCN3CCC(Cc4ccccc4)CC3)c2[nH]c1=O` [Ex. 54, 4-Benzyl-1-[2-(2,3-dioxoquinoxalin-5-oxy)ethyl]piperidine] are 3.6 µM, > 100 µM and 60 µM.
In the same order, the values of `Nc1ccc(OCCN2CCC(Cc3ccccc3)CC2)cc1[N+](=O)[O-]` [Ex. 56, 4-Benzyl-1-[2-(4-amino-3-nitrophenoxy)ethyl]piperidine] are 1.1 µM, > 100 µM and 90 µM.
Take `O=[N+]([O-])c1cccc(OCCN2CCC(Cc3ccccc3)CC2)c1` [Ex. 62, 4-Benzyl-1-[2-(3-nitrophenoxy)ethyl]piperidine]: the IC50 in assay [1] was 6 µM; in assay [2], > 100 µM; in assay [3], 80 µM.
In the same order, the values of `COc1cccc(OCCN2CCC(Cc3ccccc3)CC2)c1` [Ex. 69, 4-Benzyl-1-[2-(3-methoxyphenoxy)ethyl]piperidine] are 0.43 µM, > 100 µM and 20 µM.
For `O=c1[nH]c2ccc(OCCN3CCC(Cc4ccc(Cl)cc4)CC3)cc2[nH]1` [Ex. 80, 4-(4-Chlorobenzyl)-1-[2-(2-oxobenzimidazol-5-oxy)ethyl]piperidine], in that order: 0.025 µM, 70 µM and 16 µM.
Turning to `c1ccc(COc2ccc(OCCN3CCC(Cc4ccccc4)CC3)cc2)cc1` [Ex. 98, 1-[2-(4-Benzyloxyphenoxy)ethyl]-4-benzylpiperidine hydrochloride], the IC50 worked out at 100 µM in assay [1], 80 µM in assay [2] and 80 µM in assay [3].
With `Oc1ccc(CCCN2CCC(Cc3ccccc3)CC2)cc1` [Ex. 106, 1-[3-(4-Hydroxyphenyl)propyl]-4-benzylpiperidine hydrochloride], the results for the IC50 in assay [1], in assay [2] and in assay [3] were 0.02 µM, 260 µM and 90 µM, respectively.
In the same order, the values of `Oc1ccc(CCCN2CCC(Cc3ccc(Cl)cc3)CC2)cc1` [Ex. 107, 1-[3-(4-Hydroxyphenyl)propyl]-4-(4-chlorobenzyl)piperidine hydrochloride] are 0.03 µM, 270 µM and 60 µM.
For `Oc1ccc(CCN2CCC(Cc3ccccc3)CC2)cc1` [Ex. 108, 1-[2-(4-Hydroxyphenyl)ethyl]-4-benzylpiperidine hydrochloride], in that order: 0.25 µM, > 300 µM and 62 µM.
In the same order, the values of `Fc1ccc(OCCN2CCC(Cc3cccc(F)c3)CC2)cc1` [Ex. 113, 4-(3-Fluorobenzyl)-1-(2-(4-fluorophenoxy)ethyl)piperidine hydrochloride] are 30 µM, 200 µM and 200 µM.
Regarding `Oc1ccc(OCCN2CCC(c3ccccc3)CC2)cc1` [Ex. 127, 1-[2-(4-Hydroxyphenoxy)ethyl]-4-phenylpiperidine hydrochloride], the IC50 in assay [1] is 5 µM; in assay [2], > 300 µM; in assay [3] it was 70 µM.
As for `c1ccc(CC2CCN(CCSc3ccccc3)CC2)cc1` [Ex. 144, 4-Benzyl-1-(2-thiophenoxyethyl)piperidine hydrochloride], the IC50 in assay [1] was 1.6 µM; in assay [2], > 300 µM; in assay [3] it was > 300 µM.
Turning to `c1ccc(CC2CCN(CCOc3ccc4c(c3)OCO4)CC2)cc1` [Ex. 148, 1-[2-(3,4-Methylenedioxyphenoxy)ethyl]-4-benzylpiperidine hydrochloride], the IC50 in assay [1] was 3.8 µM; in assay [2] it was 135 µM; in assay [3], 105 µM.
In the same order, the values of `Cc1cc(OCCN2CCC(Cc3ccc(F)cc3)CC2)ccc1O` [Ex. 152, 1-[2-(4-Hydroxy-3-methylphenoxy)ethyl]-4-(4-fluorobenzyl)piperidine hydrochloride] are 0.04 µM, 200 µM and 90 µM.
Turning to `Cc1ccc(CC2CCN(CCOc3ccc(O)c(C)c3)CC2)cc1` [Ex. 153, 1-[2-(4-Hydroxy-3-methylphenoxy)ethyl]-4-(4-methylbenzyl)piperidine hydrochloride], the IC50 in assay [1] came out at 0.04 µM; in assay [2] it was 70 µM; in assay [3] it was 65 µM.
In the same order, the values of `Cc1ccc(CC2(O)CCN(CCOc3ccc(O)c(C)c3)CC2)cc1` [Ex. 155, 1-[2-(4-hydroxy-3-methylphenoxy)ethyl]-4-hydroxy-4-(4-methylbenzyl)piperidine hydrochloride] are 0.03 µM, > 300 µM and 170 µM.
For `Oc1cccc(OCCN2CCC(Cc3ccc(F)cc3)CC2)c1` [Ex. 159, 4-(4-Fluorobenzyl)-1-[2-(3-Hydroxyphenoxy)ethyl]piperidine hydrochloride], in that order: 0.5 µM, 140 µM and 130 µM.
